How the values were obtained:
[1] = Dynamic Vapor Sorption (DVS) isotherm; format: physicochemical; settings: 25° C., FIG. 19
Description: Dynamic Vapor Sorption (DVS) was performed using a Q5000SA. The sample (5-15 mg) was loaded into a metallic quartz sample pan, suspended from a microbalance, and exposed to a humidified stream of nitrogen gas. Weight changes were relative to a matching empty reference pan opposite the sample, suspended from the microbalance. The sample was held for a minimum of 10 min at each level and only progressed to the next humidity level if there was <0.002% change in weight between measurements (interval: 5 s) or 45 min had elapsed (for 5-65% RH) or 2 h had elapsed (for 80 and 95% RH). The following programs were used: • 1—Equilibration at 50% RH • 2—50% to 5%. (50%, 35%, 20%, and 5%) • 3—5% to 95% (5%, 20%, 35%, 50%, 65%, 80%, and 95%) • 4—95% to 5% (95%, 80%, 65%, 50%, 35%, 20%, and 5%) • 5—5% to 50% (5%, 20%, 35%, and 50%) • 1—Equilibration at 50% RH • 2—50% to 2%. (50%, 40%, 30%, 20%, 10%, and 2%) • 3—2% to 75% (2%, 10%, 20%, 30%, 40%, 50%, 60%, 70% and 75%) • 4—75% to 2% (75%, 70%, 60%, 50%, 40%, 30%, 20%, 10% and 2%) • 5—2% to 50% (2%, 10%, 20%, 30%, 40% and 50%) • 1—Equilibration at 50% RH • 2—50% to 2%. (50%, 40%, 30%, 20%, 10%, and 2%) • 3—2% to 65% (2%, 10%, 20%, 30%, 40%, 50%, 60% and 65%) • 4—65% to 2% (65%, 60%, 50%, 40%, 30%, 20%, 10% and 2%) • 5—2% to 50% (2%, 10%, 20%, 30%, 40% and 50%). […]

[2] = Exposure of dry cake to humidity, solid form checked by XRPD; format: physicochemical; settings: for XRPD pattern, dry cake exposed to humidity: monofumarate solids exposed to humidity (90% RH/30° C.), monofumarate
Description: The two different polymorphic forms of N-ethyl-2-(5-fluoro-1H-indol-3-yl)-N-methylethan-1-amine monofumarate were discovered by reactive crystallization from various solvents. These crystallization experiments were performed by subjecting the in-situ created salt, made by evaporating an ethanol solution of free base and fumaric acid, to vigorous agitation in 10 volumes of the selected solvent. The agitated mixtures were heated to 45-50° C. and cooled to room temperature as necessary to induce crystallization. Form 1 was the predominant form from acetone, and the mixed ethanol/MTBE solvent system, whereas, Form 2 was produced from IPA solvent (see Table 7 below).
The polymorphic Form 1 of N-ethyl-2-(5-fluoro-1H-indol-3-yl)-N-methylethan-1-amine hemifumarate was discovered by reactive crystallization from various solvents. These crystallization experiments were performed by subjecting the in-situ created salt, made by evaporating an ethanol solution of free base and 0.55 equivalents of fumaric acid, to vigorous agitation in 10 volumes of the selected solvent. The agitated mixtures were heated to 45-50° C. and cooled to room temperature as necessary to induce crystallization. Only one form was observed from the brief crystallization screening study, as depicted in Table 10 below.

Row | Molecule | XRPD pattern, dry cake exposed to humidity [2] | further results
1 | CCN(C)CCc1c[nH]c2ccc(F)cc12.Cl [hydrochloride Form 1, N-ethyl-2-(5-fluoro-1H-indol-3-yl)-N-methylethan-1-amine hydrochloride] |  | DVS isotherm behaviour (moisture sorption equilibrium) [1]: did not reach equilibrium at 75% RH
2 | CCN(C)CCc1c[nH]c2ccc(F)cc12.O=C(O)/C=C/C(=O)O [monofumarate Form 1, N-ethyl-2-(5-fluoro-1H-indol-3-yl)-N-methylethan-1-amine monofumarate] | Form 1 | 
3 | CCN(C)CCc1c[nH]c2ccc(F)cc12.O=C(O)/C=C/C(=O)O [monofumarate Form 2, N-ethyl-2-(5-fluoro-1H-indol-3-yl)-N-methylethan-1-amine monofumarate] | slowly converted to Form 1 | 
4 | N-ethyl-2-(5-fluoro-1H-indol-3-yl)-N-methylethan-1-amine hemifumarate [hemifumarate Form 1] |  | XRPD pattern, Humid ([2]; hemi-fumarate dry solid from EtOH:MTBE (1:1 vol.), exposed to humidity): deliquescent

Reference: patent publication US12180158B1, “Crystalline fumarate salts of n-ethyl-2-(5-fluoro-1H-indol-3-yl)-n-methylethan-1-amine” (Gilgamesh Pharmaceuticals, Inc., priority 2023, dated 2024)
